Test results: PMC5777153 (Cell chemical biology, 2017)

System: human kinome
Experiment: KinomeScan competitive binding assay across the kinome
Conditions: 10 μM

COc1cc2c(Oc3ccc(NC(=O)C4(C(=O)Nc5ccc(F)cc5)CC4)cc3F)ccnc2cc1OCCCN1CCOCC1 [foretinib]
number of kinases bound (percent of control value of 35 or less): 133 kinases
